The results in this text go back to a melting point compilation (Tetko et al.).

The term melting point denotes the temperature, or range, at which the solid turns liquid.

Turning to `O=C(O)c1ccccc1CSc1nc2ccccc2o1`, the melting point is 175 to 177 °C.
`NS(=O)(=O)c1ccc(O)c(C(=O)O)c1` registered a melting point of 233 to 235 °C.
In turn, `CCOc1ccc(NC(C)=O)cc1S(N)(=O)=O` had a melting point of 187 to 189 °C.
For `NC(CC(=O)O)c1ccc(-c2ccccc2)cc1` (stereo unspecified) the value was 238 to 240 °C.
In the case of `CC1(C)OC(=O)c2c1ccnc2Cl`, the melting point lay within 158 to 160 °C.
For `COc1ccc(N)cc1NC(=O)c1ccc(Cl)cc1F` the value was 140 to 142 °C.
The compound `COc1cccc(CC2(C(=O)O)CC3CCC2C3)c1` (stereo unspecified) returned a melting point of 67 to 69 °C.
In turn, `O=S(=O)(Cl)c1cc(Br)ccc1Cl` gave a melting point of 64 to 66 °C.
For `Cc1nn(-c2ccccc2)c(C)c1NC(=O)CCCl` the value was 119 to 121 °C.
For `Nc1ccc(N2CCSCC2)c(C(=O)O)c1` the value was 263 to 265 °C; for `COc1cc(CCl)cc(Br)c1OC`, 60 to 62 °C.
For the compound `Cc1ccc(-c2cnnc(N)n2)cc1`, the melting point lay within 277 to 279 °C.
For `Cc1cc(Cl)nc(-c2cccc([N+](=O)[O-])c2)n1` the value was 147 to 149 °C; for `c1ccc2c(-c3nc4ccccc4[nH]3)cccc2c1`, 264 to 266 °C; for `N#CCNc1cccc(F)c1`, 39 to 41 °C.
For `COc1ccc(C(N)C(=O)O)cc1OC` (stereo unspecified) the value was 218 to 220 °C; for `CC(C)C(C(=O)O)n1cncn1` (stereo unspecified), 177 to 179 °C.
`O=C(O)Cn1nc2n(c1=O)CCCCC2` displayed a melting point of 229 to 231 °C.
For `CCOC(=O)/C(C#N)=C\Nc1ccccc1CC` the value was 124 to 126 °C; for `O=C(O)Cc1cccc(OCc2ccccc2Cl)c1`, 64 to 66 °C; for `CCC(Nc1ccccc1)C(=O)O` (stereo unspecified), 139 to 141 °C.
Regarding `CC(C)(CCCc1ccccc1)C(=O)O`, the melting point lay in the range of 48 to 50 °C.
Consider `O=C(O)CNC(=O)c1ccc(Oc2ccccc2)cc1`, for which the melting point lay in the range of 156 to 158 °C.
For the compound `Cc1sc(-n2cccc2)c(C(=O)O)c1C`, the melting point was in the range of 156 to 158 °C.
For `COC(=O)c1ccc(CN2C(=O)CSC2=O)cc1` the value was 117 to 119 °C; for `CNC(=O)NC(=O)C(C)Cl` (stereo unspecified), 118 to 120 °C.
The figure for `N#Cc1ccc(N2CCC(N)CC2)cc1` is 84 to 86 °C; for `COc1cncc(C=CC(=O)O)c1` it is 172 to 174 °C; for `Nc1ncn(-c2ccccc2)n1` it is 146 to 148 °C.
As for `CC(C)CNC(N)=O`, the melting point was in the range of 134 to 138 °C.
For the compound `Cc1ccc(S(=O)(=O)N2CC(Cc3cccc(F)c3)C2)cc1`, the melting point lay within 57 to 59 °C.
For `Cc1cccc(N2N=C(C(=O)O)CCC2=O)c1` the value was 152 to 154 °C; for `O=S(=O)(Cl)c1csc2ccc(F)cc12`, 129 to 131 °C; for `CC(=O)c1c(Cl)nc2ccccn12`, 116 to 118 °C.
The compound `C#CCNC(=O)Nc1ccccc1[N+](=O)[O-]` showed a melting point of 190 to 192 °C.
Consider `COc1ccc(NC(C)=O)cc1S(N)(=O)=O`, for which the melting point fell in the range of 220 to 222 °C.
The figure for `CC1CC(C)CN(S(=O)(=O)c2ccc(C(=O)O)cc2)C1` (stereo unspecified) is 275 to 277 °C; for `CC(C)S(=O)(=O)Nc1ccc(C(=O)O)cc1` it is 179 to 181 °C; for `Oc1nnc2c(Cl)cccn12` it is 269 to 271 °C.
Compound `COc1cc2c(cc1[N+](=O)[O-])C(=O)CCC2` came in with a melting point of 176 to 178 °C.
The figure for `CCc1cccc(C)c1NC(=O)CCl` is 100 to 110 °C; for `CC(=O)c1cccc(OCC(=O)N(C)C)c1` it is 93 to 95 °C.
For `COC(=O)c1cc(N)ccc1C` the value was 38 to 40 °C; for `Cc1ccnc2c1NC(=O)CN2`, 216 to 218 °C.
The figure for `O=C1CCC(=O)N1c1ncc(Br)s1` is 150 to 152 °C.
`CCS(=O)(=O)Nc1ccc(S(=O)(=O)Cl)c(C)c1` registered a melting point of 82 to 84 °C.
The figure for `Cc1c(C(=O)O)cnn1-c1ccccn1` is 174 to 176 °C; for `CC(=O)N1CCc2cc(C(=O)C(C)Cl)ccc21` (stereo unspecified) it is 129 to 131 °C; for `O=C1CCc2c(O)cccc21` it is 242 to 244 °C.
The compound `OC1(CCOc2ccccc2)CC1` had a melting point of 57 to 59 °C.
The figure for `CN(C)c1ncc(N)cn1` is 78 to 80 °C; for `Cc1ccc(Nc2nc(N)nc(CCl)n2)cc1` it is 158 to 160 °C; for `O=C(O)c1cccc2c1CCCN2` it is 142 to 144 °C.
For `O=C(O)c1csc(Cc2ccc(F)cc2)n1` the value was 149 to 151 °C; for `Nc1ncc(Br)cc1S(=O)(=O)N1CCCC1`, 169 to 171 °C; for `CSc1nc(-c2ccccc2)c[nH]1`, 130 to 132 °C.
For `CN1C(=O)CC(C(=O)O)C1c1cccc(Cl)c1` (stereo unspecified) the value was 155 to 157 °C; for `C#CCNC(=O)NC1(C(=O)O)CCc2ccccc21` (stereo unspecified), 181 to 183 °C; for `CSCCC(NC(=O)c1ccco1)C(=O)O` (stereo unspecified), 185 to 187 °C.
`O=C(NCc1ccccc1)c1ccnc(Cl)c1` showed a melting point of 99 to 101 °C.
For `O=C(O)C1=CC=CN2CCS(=O)(=O)N=C12` the value was 313 to 315 °C; for `CC(N)c1cc(F)ccc1N1CCC(O)CC1` (stereo unspecified), 138 to 140 °C.
Turning to `CC(=O)c1sc(-c2ccc(O)cc2)nc1C`, the melting point was in the range of 133 to 135 °C.
For `CC(NC(N)=S)c1ccccc1` (stereo unspecified) the value was 94 to 96 °C.
For `COc1ccc(CCCC(=O)O)cc1F` the value was 63 to 65 °C.
Compound `COc1ccc(NC(=O)CCCl)c([N+](=O)[O-])c1` registered a melting point of 97 to 99 °C.
For `C=CCNC(=O)Nc1ccc(N)cc1` the value was 157 to 159 °C.
`CCOC(=O)c1cnn2c1nc(Cl)c1ccccc12` registered a melting point of 129 to 131 °C.
In the case of `O=C1OCCc2cnc3ncnn3c21`, the melting point fell in the range of 271 to 273 °C.
The figure for `O=Cc1ccc(Br)c2cccnc12` is 119 to 121 °C.
For `NC1(C(=O)O)CCCSC1` (stereo unspecified), the melting point lay in the range of 208 to 210 °C.
Compound `Cc1nn(C)c(C)c1-c1cc(C(=O)O)[nH]n1` gave a melting point of 281 to 283 °C.
For `CC(=O)Nc1cccc(CCl)c1` the value was 83 to 85 °C.
The figure for `NS(=O)(=O)N1CCNCC1` is 164 to 166 °C.
The figure for `O=C(O)c1occc1CSc1ccccc1` is 114 to 116 °C; for `NC(=O)C1CC2CCCCC2N1` (stereo unspecified) it is 123 to 125 °C.
For `O=C(CCl)N1N=C(c2ccco2)CC1c1cccs1` (stereo unspecified), the melting point lay within 153 to 155 °C.
Turning to `Cc1ccc(C)n1-c1ccc(CC(=O)O)cc1`, the melting point was in the range of 106 to 108 °C.
Compound `O=C(O)CN1CCC(=O)NC1=O` showed a melting point of 197 to 199 °C.
The figure for `OCc1nc2cccnc2[nH]1` is 210 to 212 °C.
In the case of `Cc1cc(F)ccc1-c1ccc(C(=O)O)cc1F`, the melting point lay in the range of 189 to 191 °C.
As for `N#Cc1ccc(S(=O)(=O)Cl)c(C(F)(F)F)c1`, the melting point lay within 70 to 72 °C.
For `Cc1cc(N)c2cccnc2c1C` the value was 124 to 126 °C; for `O=C(CCl)N(Cc1nnc(-c2ccc(Cl)cc2)o1)C1CC1`, 102 to 104 °C; for `NCc1ccc(-c2cccnc2)cc1`, 66 to 68 °C.
The figure for `COc1cc2nc(C)sc2cc1OC` is 70 to 72 °C.
